Experimental data from patent US6407073B1, “Use of coumarin derivatives for the treatment of digestive tract disorders” (Bio-Monde Preparations Limited, priority 1997, dated 2002).
Marks after values point to notes of the source that are not given here.

How the values were obtained:
[1] = system: mice with AAP-induced hepatotoxicity; experiment: Survival of mice with acetaminophen (AAP)-induced hepatotoxicity; format: in vivo, CBA/H Zgr inbred mice; details: for No of dead mice/Total No of mice / Mortality (%): 48 hours; for mortality in comparison with control mice given saline: 250 mg/kg
Source text: The hepatoprotective effect of a composition in accordance with the invention was investigated in mice with acetaminophen (paracetamol) induced hepatotoxicity.
CBA/H Zgr inbred mice were raised in an animal colony unit. Mice of both sexes aged 3 to 4 month were used in the experiments. Mice were maintained under standard laboratory conditions, fed with commercially available murine food pellets and allowed water ad libitum.
The procedure of Guarner was followed (see Hepatology 1988; 3:248-53). To induce hepatic drug-metabolising enzymes, mice were given phenobarbitone-sodium in drinking water for 7 days (0.3 g/L). Thereafter, mice were fasted overnight. […]
The above ingredients were dissolved in phosphate buffered saline (PBS) to which several drops of Tween 20™ (polyoxyethylene 20 sorbitan monolaurate) were added (50 μl/ml). The resulting white milk suspension was administered to mice intraperitoneally.
At the same time, control animals were given 0.5 ml of pyrogen-free saline to which several drops of Tween 20™ (50 μl/ml) were added.
Acetaminophen, dissolved in heated PBS, was given intragastrically, by stomach tube, in a volume of 0.5 ml. Animals were allowed food 4 hours later. Mortality of mice was followed for 48 hours, as previous results have shown that control mice (given saline rather than the composition before acetaminophen) either die within this period or fully recover and survive indefinitely.
Differences in survival between groups of mice were compared by χ^2-test. Plasma AST and ALT concentrations are expressed as means±SEM and differences between groups were compared by Student's t-test.

[2] = system: mice with AAP-induced hepatotoxicity; experiment: Plasma aminotransferase levels in mice with AAP-induced hepatotoxicity; format: in vivo, CBA/H Zgr inbred mice
Procedure: Plasma aspartate aminotransferase (AST) and alanine aminotransferase (ALT) were measured 24 hours after the administration of acetaminophen, because it has been observed that the levels of AST and ALT are at their peak values at this time. Mice were given 250 units of […] intraoeritoneally 15 minutes before bleeding. Blood was obtained by puncture of medial orbital angle using glass capillary tubes. Plasma was stored at −20° C. until aminotransferase determination, which was carried out using standard laboratory techniques (see Expert Panel on Enzymes, Committee on Standards, Clin. Chem. Biochem. 1977; 15: 39-51 and Clin. Chem. Acta. 1980; 105: 147F-54F). Differences in survival between groups of mice were compared by χ^2-test. Plasma AST and ALT concentrations are expressed as means±SEM and differences between groups were compared by Student's t-test. The effect of a Compound of the invention (Hymecromone) was investigated on plasma aminotransferase levels in mice with AAP-induced hepatotoxicity. Hymecromone (250 mg/kg) or a control of saline was given to mice 30 minutes before administration of acetaminophen (220 mg/kg). Plasma AST and ALT were measured 24 hours after acetaminophen administration. […] As shown, in comparison with normal mice, the administration of acetaminophen increased AST and ALT by approximately 19 and 100 times, respectively.

[3] = Table 1, Hymecromone 50 mg/kg i.p. 30 minutes before AAP 300 mg/kg
[4] = Table 1, Hymecromone 250 mg/kg i.p. 30 minutes before AAP 300 mg/kg, P < 0.01 vs saline
[5] = Table 2, Hymecromone 50 mg/kg i.p. 30 minutes before AAP 250 mg/kg
[6] = Table 2, Hymecromone 250 mg/kg i.p. 30 minutes before AAP 250 mg/kg, P < 0.001 vs saline
[7] = Table 3, Hymecromone 250 mg/kg i.p. 30 minutes before AAP 250 mg/kg, P < 0.001 vs saline
[8] = Hymecromone 250 mg/kg, AAP 220 mg/kg, P<0.005
[9] = plasma, Hymecromone 250 mg/kg 30 minutes before AAP 220 mg/kg, 24 hours after AAP, mean, n = 16, P < 0.005 vs saline

Cc1cc(=O)oc2cc(O)ccc12 [Hymecromone, 7-hydroxy-4-methylcoumarin] was tested, and the “No of dead mice/Total No of mice” value ([1]; Table 1, Hymecromone 10 mg/kg i.p. 30 minutes before AAP 300 mg/kg intragastrically) was 12/12, the “Mortality (%)” value ([1]; Table 1, Hymecromone 10 mg/kg i.p. 30 minutes before AAP 300 mg/kg) was 100% and the “Mortality (%)” value [1, 3] was 92%. For the same compound, the “No of dead mice/Total No of mice” value [1, 3] was 11/12, the “Mortality (%)” value [1, 4] was 29% and the “No of dead mice/Total No of mice” value [1, 4] was 2/7. The “mortality in comparison with control mice given saline” value ([1]; Table 1 experiment, P<0.01) was “significantly reduced the mortality”, the “Mortality (%)” value [1, 5] was “(93) %” and the “No of dead mice/Total No of mice” value [1, 5] was 9/13. For the same compound, the “Mortality (%)” value [1, 6] was “(0)^c %”, the “No of dead mice/Total No of mice” value [1, 6] was 0/13 and the “Mortality (%)” value [1, 7] was “(0)^c %”. The “No of dead mice/Total No of mice” value [1, 7] was 0/15, the “mortality in comparison with control mice given saline” value ([1]; two further experiments (Tables 2 and 3), P<0.001) was “statistically significantly reduced the mortality” and the “reduction of the increase of ALT in comparison with control mice pretreated with saline” value [2, 8] was “three times”. The “reduction of the increase of AST in comparison with control mice pretreated with saline” value [2, 8] was “five times”, the ALT [2, 9] was 776 U/L and the AST [2, 9] was 267 U/L.
